The subject of one data set is S. aureus Xen36. Description: Minimal inhibitory concentration by broth dilution method. The data set is classed as cell-based, Staphylococcus aureus. As to conditions: against S. aureus Xen36, broth dilution. On the procedure: FIGS. 17-20 show tests of the titanium rod of FIG. 3 against Staphylococcus aureus by agar dilution and liquid culture methods. To determine the antimicrobial activity of the loaded wires, S. aureus (Xen36, derived from ATCC 49525) bacteria were cultured overnight at 37° C. in Luria-Bertani medium. The minimal inhibitory concentration of gentamicin was determined by the broth dilution method. In the agar diffusion test, 100 μl of 1×10^6 colony forming units/ml S. aureus solution was inoculated on agar plates and dried. […] The inhibition zones (IZ) 1708, 1710 around the components were measured following 24 hours incubation at 37° C.
In the agar diffusion assay, an elliptical shaped IZ 1708 formed around the loaded wire 1702 (35 mm shorter and 45 mm longer axis).
In general terms: Broth dilution looks for growth in wells or tubes with falling amounts of substance.

The test system of another data set is S. aureus. As to conditions: 4 ml of 1×10^5 CFU/ml S. aureus, 24 hours.
Data set [1] is described as follows: Gentamicin release from titanium nanotubes, fractional volume sampling. The data set is classed as physicochemical. On the procedure:
FIG. 13 illustrates a line graph showing the amount of gentamicin 2300 released from a titanium surface per hour 2400 after a two-step EPD process, as described above. […] Fractional volume sampling was carried out for 3 days. FIG. 15 illustrates the gentamicin concentration in the release solution, and FIG. 16 represents the cumulative release of gentamicin. An initial burst release was observed of around 78% in the first 10 minutes, then gentamicin was released at a slower rate up to 3 days.

We go through one substance from US20250269091A1, “UTILIZATION OF ELECTROPHORETIC DEPOSITION TO COAT MEDICAL IMPLANTS WITH THERAPEUTIC AGENTS IN A STERILE CLINICAL SETTING” (Rush University Medical Center, priority 2022, published 2025).

Regarding gentamicin, the MIC (usually the lowest concentration found to suppress growth) against S. aureus Xen36 came to 3.6 µg/mL. The “bacterial density (absorbance) compared to growth control” value in the data set on S. aureus was “significantly decreased bacterial density”. Moreover, the “duration of slower release of gentamicin” value in data set [1] (after the initial burst) is listed as “up to 3 days”. In addition, in data set [1] (entire period tested (3 days)), the “drug concentration in release solution relative to MIC” value was “stayed above the determined minimum inhibitory concentration (MIC)”. In data set [1] (first 10 minutes, titanium nanotube surface after two-step EPD with gentamicin and chitosan), the “initial burst release of gentamicin” value was “around 78%”. Moreover, the “cumulative amount of gentamicin detected” value in data set [1] (release over 3 days, titanium nanotube surface after two-step EPD) fell in the range of 400 to 550 µg.
